In patent US9446084B2, “Use of free radical scavengers for protecting and treating skin and hair damages caused by chemotherapy” (Coty Prestige Lancaster Group GmbH, priority 2005, dated 2016):

Legend:
[1] = RPF 'is known'; cited from earlier work
[2] = Radical protection factor (RPF) by electron spin resonance (ESR) against a test radical; assay type: biochemical
Excerpt: S2=signal amplitude of the antioxidant.
As has already been described, the radical protection factor (RPF) determines the activity of a substance for binding free radicals against a test substance. This test substance consists of a highly reactive, semi-stable radical which reacts with all known antioxidation agents. Such radicals include nitroxides such as proxo (2.2,5.5-tetramethyl-1-dihydropyrrolinoxy-nitroxide), tempol (2.2,6.6-tetramethyl-1-piperidinoxy-4-ol-nitroxide), DTBN (di-tert-butyl-nitroxide or preferably DPPH (1.1-diphenyl-2-picryl-hydrazyl.
The RPF is measured in such a way that the signal amplitudes of the test radical created by electron spin resonance (ESR/EPR) are measured before and after mixing with an antioxidation agent/scavenger, and the RPF is calculated from this.
Ind. […] Here, based on the known concentration of the test substance (here: DPPH) or the number of its free radicals (radicals per ml), a signal amplitude S1 is measured using an ESR spectrometer. The test radical is dissolved in the same way as the antioxidation agent in a (e.g. 0.1 m) water/alcohol solution. Then the signal amplitude S2 of the antioxidation agent is measured. The normalised difference between the two signal amplitudes is the reduction factor RF RF=(S1-S2)/S1. The result of the radical reduction of the test substance RC×RF is normalised in relation to the quantity of the product input PI (mg/ml). Here, the RC is the quantity of the test substance, i.e. the known number of radicals in the test substance. The radical protection factor is calculated according to the following equation: […]
The radical protection factor can be determined using an ESR spectrometer (GALENUS GmbH, Berlin, Germany), and is a value for labelling products with regard to their ability to bind free radicals. The procedure is an in-vitro procedure, in which no individual properties of the user influence the antioxidants.

Molecule | RPF known for standard antioxidation agents [1] | RPF (radical protection factor) ([2]; radical scavenger as such, ESR) | further results
Cc1c(C)c2c(c(C)c1O)CCC(C)(CCCC(C)CCCC(C)CCCC(C)C)O2 (racemic) [DL-α-tocopherol] | 41200 ×10^14 radicals/mg |  | 
CC1=C(/C=C/C(C)=C/C=C/C(C)=C/CO)C(C)(C)CCC1 [all-trans-retinol] | 827 ×10^14 radicals/mg |  | 
CC(=O)OC/C=C(C)/C=C/C=C(C)/C=C/C1=C(C)CCCC1(C)C [all-trans-retinolacetate] | 196 ×10^14 radicals/mg |  | 
O=C1O[C@H]([C@@H](O)CO)C([O-])=C1OP(=O)([O-])[O-].[Na+].[Na+].[Na+] [natrium-ascorbyl-phosphate] |  | 35000 ×10^14 radicals/mg | 
O=C(/C=C/c1ccc(O)c(O)c1)O[C@H](Cc1ccc(O)c(O)c1)C(=O)O [rosemary acid] |  | 36000-68000 ×10^14 radicals/mg | 
O=C(OC[C@H]1O[C@@H](OC(=O)c2cc(O)c(O)c(OC(=O)c3cc(O)c(O)c(O)c3)c2)[C@H](OC(=O)c2cc(O)c(O)c(OC(=O)c3cc(O)c(O)c(O)c3)c2)[C@@H](OC(=O)c2cc(O)c(O)c(OC(=O)c3cc(O)c(O)c(O)c3)c2)[C@@H]1OC(=O)c1cc(O)c(O)c(OC(=O)c2cc(O)c(O)c(O)c2)c1)c1cc(O)c(O)c(OC(=O)c2cc(O)c(O)c(O)c2)c1 [tannic acid] |  | 310000 ×10^14 radicals/mg | 
CC(=O)Oc1c(C)c(C)c2c(c1C)CCC(C)(CCC[C@H](C)CCC[C@H](C)CCCC(C)C)O2 (stereo partly drawn) [α-tocopherylacetate] | 48 ×10^14 radicals/mg |  | 
cyclodextrines |  |  | RPF (radical protection factor) ([2]; unit not given): 0
